One experiment has as its target human TLR7 (Homo sapiens (Human), UniProt Q9NYK1). Description: HEK-Blue TLR7 reporter assay (TLR7 agonist activity). Format: cell-based. The note with it: HEK-Blue TLR7 cells, SEAP reporter, 18 h treatment; read-out: TLR7 Agonism (EC50). As for the experimental part:
This example describes a method for assaying TLR7 agonist activity of the compounds disclosed in this specification.
HEK-Blue™ TLR7 cells were added to each well of a 384-well tissue-culture plate (15,000 cells per well) and incubated 16-18 h at 37° C., 5% CO2. Compounds (100 nl) were dispensed into wells containing the HEK-Blue™ TLR cells and the treated cells were incubated at 37° C., 5% CO2. After 18 h treatment ten microliters of freshly-prepared Quanti-Blue™ reagent (Invivogen) was added to each well, incubated for 30 min (37° C., 5% CO2) and SEAP levels measured using an Envision plate reader (OD=620 nm).
A general note: A reporter such as luciferase makes a cellular process visible.

In a further experiment the test system is interleukin 6 (IL-6). Description: Interleukin 6 induction assay in human whole blood. Format: cell-based. The settings on record: 37° C., 20 h, AlphaLISA. As to the method:
This example describes a method for assaying interleukin 6 induction by compounds disclosed in this specification.
Compounds diluted in DMSO were transferred to individual wells of a Matrix Technologies clear, V-bottom 384-well plate using ECHO acoustic liquid handling technology (25 nL per well). Human whole-blood samples (25 uL) were added to each well using a CyBio FeliX liquid handling instrument. The plate was shaken on a plate shaker for three min before incu-bating the reaction mixtures at 37° C. for 20 h. Basel RPMI 1640 medium (supplemented with L-glutamine) was then added to each well (25 uL per well) prior to liberating plasma from each sample by centrifugation (450×g, 5 min, ambient temperature). Treated plasma samples (3 uL) were subsequently transferred to individual wells of a white, shallow, 384-well ProxiPlate (Perkin Elmer) using the FeliX liquid handling instrument and their interleukin 6 levels were measured using AlphaLISA technology as described by the manufacturer, PerkinElmer. Data analyses software was used to determine compound EC50 values where the baseline was established using average DMSO values and 100% induction established using reference compound values at the highest concentration tested. EC50's can be determined with software such as Graphpad Prism™.
Background: Alpha assays give light when donor and acceptor beads are brought close together.

A further experiment relates to IFN-α. The note with it: fold lower potency vs corresponding purine-8-one compound; cited from earlier work.

Structures are written as SMILES.

human TLR7, sequence (Q9NYK1 27-1049): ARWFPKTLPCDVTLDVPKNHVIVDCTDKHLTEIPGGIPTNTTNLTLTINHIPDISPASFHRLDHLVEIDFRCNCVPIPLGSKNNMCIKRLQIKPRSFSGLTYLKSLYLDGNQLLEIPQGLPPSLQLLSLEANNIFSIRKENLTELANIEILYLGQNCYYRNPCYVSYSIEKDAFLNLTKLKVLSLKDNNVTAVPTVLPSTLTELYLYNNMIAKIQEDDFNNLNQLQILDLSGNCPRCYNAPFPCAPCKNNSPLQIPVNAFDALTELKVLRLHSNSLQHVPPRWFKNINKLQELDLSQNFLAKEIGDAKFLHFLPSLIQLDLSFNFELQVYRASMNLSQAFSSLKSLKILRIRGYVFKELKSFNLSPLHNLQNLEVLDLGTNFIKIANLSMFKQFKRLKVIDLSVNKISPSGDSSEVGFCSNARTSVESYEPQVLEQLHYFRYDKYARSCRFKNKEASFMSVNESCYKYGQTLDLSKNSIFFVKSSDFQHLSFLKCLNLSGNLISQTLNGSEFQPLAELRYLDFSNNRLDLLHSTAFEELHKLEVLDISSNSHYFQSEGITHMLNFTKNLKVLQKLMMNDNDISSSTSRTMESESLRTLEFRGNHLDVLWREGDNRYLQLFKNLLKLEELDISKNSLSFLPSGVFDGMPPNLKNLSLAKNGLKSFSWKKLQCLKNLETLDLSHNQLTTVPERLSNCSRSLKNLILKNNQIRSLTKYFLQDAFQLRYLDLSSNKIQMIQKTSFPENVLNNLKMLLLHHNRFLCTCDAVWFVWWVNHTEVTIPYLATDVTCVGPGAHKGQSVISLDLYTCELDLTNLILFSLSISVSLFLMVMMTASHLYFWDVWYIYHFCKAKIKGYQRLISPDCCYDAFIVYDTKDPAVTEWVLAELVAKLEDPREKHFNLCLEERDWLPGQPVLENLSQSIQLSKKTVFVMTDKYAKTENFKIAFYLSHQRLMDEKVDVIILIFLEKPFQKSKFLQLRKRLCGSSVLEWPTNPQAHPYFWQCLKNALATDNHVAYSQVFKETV

Take `CCCCOc1nc(N)c2nc(O)n(Cc3ccccc3)c2n1` [Compound B, reference compound]: the EC50 on human TLR7 is 474 nM.
Turning to `CCCCOc1nc(N)c2nc(O)n(Cc3ccc4c(c3)Sc3cc(CO)ccc3N4C)c2n1` [Ia-01], the results for the EC50 in the experiment on interleukin 6 (IL-6) and on human TLR7 were 250 nM and 50 nM, respectively.
With `CCCCOc1nc(N)c2nc(O)n(Cc3ccc4c(c3)Sc3cc(CNC(C)C)ccc3N4C)c2n1` [Ia-02], the EC50 is 4.9 nM with interleukin 6 (IL-6) and 4.7 nM on human TLR7.
Regarding `CCCCOc1nc(N)c2nc(O)n(Cc3ccc4c(c3)Sc3cc(CNCc5ccccc5)ccc3N4C)c2n1` [Ia-03], the EC50 in the experiment on interleukin 6 (IL-6) was determined as 14.4 nM; at human TLR7, 8.5 nM.
As to `CCCCOc1nc(N)c2nc(O)n(Cc3ccc4c(c3)Sc3cc(CNC)ccc3N4C)c2n1` [Ia-04], the results for the EC50 in the experiment with interleukin 6 (IL-6) and on human TLR7 were 48 nM and 39 nM, respectively.
In the case of `CCCCOc1nc(N)c2nc(O)n(Cc3ccc4c(c3)Sc3cc(CNC5COC5)ccc3N4C)c2n1` [Ia-05], the EC50 on human TLR7 was 580 nM.
With `CCCCOc1nc(N)c2nc(O)n(Cc3ccc4c(c3)Sc3cc(CNC5CCC5)ccc3N4C)c2n1` [Ia-06], the figures for the EC50 in the experiment with interleukin 6 (IL-6) and on human TLR7 were 750 nM and 93 nM, respectively.
On to `CCCCOc1nc(N)c2nc(O)n(Cc3ccc4c(c3)Sc3cc(CNCc5ccncc5)ccc3N4C)c2n1` [Ia-07], for which the EC50 on human TLR7 came out at 7.9 nM.
Turning to `CCCCOc1nc(N)c2c(n1)N(Cc1cccc(CN3CCCC3)c1)CC(=O)N2` [Vesatolimod, vesatolimod, reference compound], the EC50 at human TLR7 is 1200 nM. Besides, the “potency less than that of the corresponding purine-8-one compound, as measured by IFN-α induction” value in the experiment on IFN-α was 100 ×.

Usually EC50 stands for the midpoint of the concentration-response curve.

The record behind these values is US10457681B2, “Toll-like receptor 7 (TLR7) agonists having a tricyclic moiety, conjugates thereof, and methods and uses therefor” (BRISTOL-MYERS SQUIBB COMPANY, priority 2017, dated 2019).
